Test results as given in patent publication US6733996B2, “Methods for regulating gene expression using light” (Trustees of Dartmouth College, priority 2002, dated 2004).

Target: T1, WC-1/WC-2 (White Collar Complex) (Neurospora crassa, UniProt Q01371)
T1 construct: in vitro transcribe/translate full-length WC-1 using pAF60 as template and full length WC-2 using pGEM®/WC-2 as template; made in house; host or cells: cell-free: TNT-Coupled Reticulocyte Lysate system (Promega), templates pAF60 (WC-1) and pGEM/WC-2
T1 sequence (Q01371 whole entry): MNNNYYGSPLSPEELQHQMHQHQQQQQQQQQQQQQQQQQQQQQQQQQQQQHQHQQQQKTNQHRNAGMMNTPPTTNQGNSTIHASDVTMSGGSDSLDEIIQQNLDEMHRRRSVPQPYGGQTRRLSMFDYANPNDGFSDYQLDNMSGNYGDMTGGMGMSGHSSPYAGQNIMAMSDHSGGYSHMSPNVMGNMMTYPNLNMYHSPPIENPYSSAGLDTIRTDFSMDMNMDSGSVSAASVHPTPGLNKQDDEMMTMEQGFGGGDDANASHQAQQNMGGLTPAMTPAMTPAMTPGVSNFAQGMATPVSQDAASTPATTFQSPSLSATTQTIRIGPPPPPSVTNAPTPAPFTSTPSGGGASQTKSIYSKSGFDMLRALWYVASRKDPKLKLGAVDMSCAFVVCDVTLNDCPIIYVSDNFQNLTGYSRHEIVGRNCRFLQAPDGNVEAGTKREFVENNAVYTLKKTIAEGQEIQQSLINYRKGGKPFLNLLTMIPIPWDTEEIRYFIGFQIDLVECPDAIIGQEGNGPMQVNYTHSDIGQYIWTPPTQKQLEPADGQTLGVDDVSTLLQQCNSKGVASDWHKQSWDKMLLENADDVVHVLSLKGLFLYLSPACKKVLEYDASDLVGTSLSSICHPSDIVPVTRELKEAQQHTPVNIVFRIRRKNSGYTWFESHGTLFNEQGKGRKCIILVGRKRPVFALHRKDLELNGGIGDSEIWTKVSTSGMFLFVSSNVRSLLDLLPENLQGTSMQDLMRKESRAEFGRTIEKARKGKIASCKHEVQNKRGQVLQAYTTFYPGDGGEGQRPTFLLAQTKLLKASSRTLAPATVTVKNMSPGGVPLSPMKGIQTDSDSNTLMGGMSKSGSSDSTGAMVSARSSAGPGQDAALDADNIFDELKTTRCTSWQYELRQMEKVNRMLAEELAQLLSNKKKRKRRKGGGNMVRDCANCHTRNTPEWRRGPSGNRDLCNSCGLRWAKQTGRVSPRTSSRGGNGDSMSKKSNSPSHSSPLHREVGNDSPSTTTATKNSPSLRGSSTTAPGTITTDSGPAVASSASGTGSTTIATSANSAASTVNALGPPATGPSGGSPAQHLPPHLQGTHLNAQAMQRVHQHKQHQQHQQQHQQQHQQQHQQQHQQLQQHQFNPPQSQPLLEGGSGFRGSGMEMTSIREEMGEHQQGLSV
T1 sequence (P78714 whole entry, further chain): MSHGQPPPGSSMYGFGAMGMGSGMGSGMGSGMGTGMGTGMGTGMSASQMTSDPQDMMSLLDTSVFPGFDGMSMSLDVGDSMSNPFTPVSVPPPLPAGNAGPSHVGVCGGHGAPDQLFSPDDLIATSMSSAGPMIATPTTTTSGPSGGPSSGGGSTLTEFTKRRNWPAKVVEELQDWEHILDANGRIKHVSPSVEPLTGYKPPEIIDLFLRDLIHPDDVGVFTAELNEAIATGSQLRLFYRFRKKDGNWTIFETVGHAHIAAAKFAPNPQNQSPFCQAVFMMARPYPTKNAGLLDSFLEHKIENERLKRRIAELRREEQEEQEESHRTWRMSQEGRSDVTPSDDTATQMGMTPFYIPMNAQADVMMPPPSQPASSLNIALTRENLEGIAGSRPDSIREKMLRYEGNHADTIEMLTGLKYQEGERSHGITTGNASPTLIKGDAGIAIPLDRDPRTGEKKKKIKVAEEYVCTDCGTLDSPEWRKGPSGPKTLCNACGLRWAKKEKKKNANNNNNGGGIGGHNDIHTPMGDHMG
Assay: Electrophoretic mobility shift assay of in vitro-translated WC-1 and WC-2 binding to frq LRE probe, with or without flavin cofactor and light
Conditions: for Average amount of faster migrating complex ± SEM / Average amount of slower migrating complex ± SEM: +FAD (1 mM in translation reaction), in vitro-translated WC-1 and WC-2, densitometry; for Light regulation of LRE binding of in vitro-translated WC-1/WC-2: flavin added to the WC-1 translation reaction, 1 mM
Procedure: In vitro coupled transcription/translation was conducted to produce WC-1 and WC-2 proteins for subsequent use in binding reactions. WC-1 and WC-2 together were able to bind to the LREs as not just one, but two distinct complexes with mobilities similar to those seen using nuclear extracts. […] These complexes were not seen when either protein was used alone or when unprogrammed lysate was used.
In vitro translation experiments and subsequent binding reactions were repeated, this time adding FMN or flavin adenine dinucleotide (FAD) to the WC-1 translation reaction. FAD is the flavin cofactor for both the blue light-sensing cryptochromes (Cashmore, et al. (1999) Science 284:760) and the Euglena photoactivated adenyl cyclase (Iseki, et al. (2001) Nature 415:1047).
When FAD was combined with WC-1 and WC-2, light caused a marked increase in the amount of slower migrating complex relative to the reactions not treated with light. Furthermore, a marked increase in the slower migrating complex was observed, as compared to reactions lacking FAD treated with or without light. […] The addition of FAD confers light responsiveness to the WCC, similar to that seen with the nuclear extracts. In the dark, a faster migrating WC-1/WC-2 dimeric complex dominates, yielding in the presence of light to a larger, slower migrating WC-1/WC-2 multimeric complex. WC-1 with FAD, exposed to light in the absence of WC-2, can initiate the mobility shift when subsequently combined in the dark with WC-2. Furthermore, WC-1 can be reconstituted with free FAD after in vitro translation. Thus, it is WC-1 that is the initial active protein partner in mediating the photoresponse.
The probes consisted of two oligonucleotides of equal length annealed together and end-labeled using T4 polynucleotide kinase and [^γ-32P]ATP. Unincorporated ATP was removed using a BIO-GEL® P-30 chromatography column (BIO-RAD®, Hercules, Calif.), and probe was diluted to a final concentration of 0.018 μM. Oligonucleotide pairs were annealed for use as probe or unlabeled competitor. Distal LRE probe, the unrelated 42 bp competitor, and the mutated distal LRE competitor were generated with oligonucleotide pairs ACF57/ACF58, ACF40/ACF48 and ACF67/ACF68, respectively. The proximal LRE probe and mutated proximal LRE competitor were generated with oligonucleotide pairs ACF62/ACF63 and ACF69/ACF70, respectively.
Binding reactions using nuclear protein extracts contained 1× binding buffer, […], 0.1 μg poly(dI-dC), 1 μl probe, 0.5 μl of normal rabbit sera (Pocono Rabbit Farm, Canadensis, Pa.), and 3 μg of nuclear protein extract, which was added last to the binding reactions, in a total volume of 20 μl. In reactions that contained antisera, 1 μl anti-WC-1, 1 μl anti-WC-2, or 0.5 μl anti-FRQ was used. Binding reactions using in vitro translated proteins contained 1× binding buffer, 1 μg poly(dI-dC), 1 μl probe, and 6 μl of the in vitro translation reaction in a total volume of 20 μl . Binding reactions were incubated for 30 minutes on ice prior to electrophoresis at 4° C. on nondenaturing 4% polyacrylamide gels containing 0.5×TBE and 2.5% (v/v) glycerol. Gels were dried and visualized using a PhosphorImager and IMAGEQUANT® software (Molecular Dynamics, Sunnyvale, Calif.). Binding reactions and gel electrophoreses were performed under red lights.
TNT®-Coupled Reticulocyte Lysate system (PROMEGA®, Madison, Wis.) was used according to the manufacturer's directions to in vitro transcribe/translate full-length WC-1 using pAF60 as template and full length WC-2 using pGEM®/WC-2 as template. 8 μM ZnCl2 was added to each reaction. Where indicated, FAD (SIGMA®, St. Louis, Mo.) and FMN (SIGMA®, St. Louis, Mo.) were added to a final concentration of 1 mM. Reactions were conducted under red lights.

Compound | Average amount of faster migrating complex ± SEM (Dark) | Average amount of slower migrating complex ± SEM (Dark) | Average amount of faster migrating complex ± SEM (Light) | Average amount of slower migrating complex ± SEM (Light) | Light regulation of LRE binding of in vitro-translated WC-1/WC-2
Cc1cc2nc3c(=O)[nH]c(=O)nc-3n(C[C@H](O)[C@H](O)[C@H](O)COP(=O)(O)OP(=O)(O)OC[C@H]3O[C@@H](n4cnc5c(N)ncnc54)[C@H](O)[C@@H]3O)c2cc1C [FAD, flavin adenine dinucleotide] | 334119 ± 43086 | 56912 ± 3055 | 264723 ± 22687 | 237163 ± 9706 | conferred light sensitivity
Cc1cc2nc3c(=O)[nH]c(=O)nc-3n(C[C@H](O)[C@H](O)[C@H](O)COP(=O)(O)O)c2cc1C [FMN, flavin mononucleotide] | – | – | – | – | No light regulation of binding
